The results in this text go back to patent US7759366B2 (Sanofi-Aventis, priority 2006, dated 2010).

This experiment deals with hCB1R (Homo sapiens, UniProt P21554). The experiment is described as follows: In vitro functional assay (FLIPR, intracellular Ca2+) with recombinant HEK293 cells, CB1. Format: cell-based. The arrangement: expressed in transfected cells; host or cells: HEK293. Particulars: recombinant HEK293 cells expressing CB1 and Galpha16; 20 min preincubation, then reference agonist; Ca2+ change; read-out: hCB1R: FLIPR; IC50. The text has this: In Vitro Functional Assays with Recombinant Cells:

hCB1R, sequence (P21554 whole entry): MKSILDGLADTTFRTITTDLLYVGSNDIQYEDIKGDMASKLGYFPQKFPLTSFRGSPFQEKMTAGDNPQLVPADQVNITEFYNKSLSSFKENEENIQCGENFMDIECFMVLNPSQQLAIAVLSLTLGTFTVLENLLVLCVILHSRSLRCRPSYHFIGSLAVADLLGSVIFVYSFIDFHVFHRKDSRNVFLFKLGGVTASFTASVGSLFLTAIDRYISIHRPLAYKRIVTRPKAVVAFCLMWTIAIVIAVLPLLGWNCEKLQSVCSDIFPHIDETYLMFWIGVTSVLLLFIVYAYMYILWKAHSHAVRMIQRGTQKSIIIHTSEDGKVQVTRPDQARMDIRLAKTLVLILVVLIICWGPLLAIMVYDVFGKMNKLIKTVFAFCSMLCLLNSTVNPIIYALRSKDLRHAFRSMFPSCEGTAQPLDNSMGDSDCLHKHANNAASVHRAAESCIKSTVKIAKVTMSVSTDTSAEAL

Consider `CC1(C)C(=O)N(c2ccc(C#N)c(C(F)(F)F)c2)C(=O)N1Cc1ccccc1Nc1ccc(O)cc1` [Example 135, 4-{3-[2-(4-Hydroxyphenylamino)benzyl]-4,4-dimethyl-2,5-dioxoimidazolidin-1-yl}-2-trifluoromethylbenzonitrile], for which the IC50 is 1 nM. For `COC(=O)C1=C[C@@H](O)[C@H](O)[C@@H](Oc2ccc(Nc3ccccc3CN3C(=O)N(c4ccc(C#N)c(C(F)(F)F)c4)C(=O)C3(C)C)cc2)O1` [Example 145, methyl (4R,5S,6S)-6-(4-{2-[3-(4-cyano-3-trifluoromethylphenyl)-5,5-dimethyl-2,4-dioxoimidazolidin-1-ylmethyl]phenylamino}phenoxy)-4,5-dihydroxy-5,6-dihydro-4H-pyran-2-carboxylate], the IC50 came to 14 nM. To `CC(=O)Nc1ccc(Nc2ccccc2CN2C(=O)N(c3ccc(C#N)c(C(F)(F)F)c3)C(=O)C2(C)C)cc1` [Example 148, N-(4-{2-[3-(4-Cyano-3-trifluoromethylphenyl)-5,5-dimethyl-2,4-dioxoimidazolidin-1-ylmethyl]phenylamino}phenyl)acetamide] belongs 11 nM; to `COC(=O)c1ccc(Nc2cc(F)ccc2CN2C(=O)N(c3ccc(F)c(C(F)(F)F)c3)C(=O)C2(C)C)cc1` [Example 154, Methyl 4-{5-fluoro-2-[3-(4-fluoro-3-trifluoromethylphenyl)-5,5-dimethyl-2,4-dioxoimidazolidin-1-ylmethyl]phenylamino}benzoate], 8 nM. Take `COC(=O)c1ccc(Nc2cc(F)ccc2CN2C(=O)N(c3ccc(C#N)c(C4CC4)c3)C(=O)C2(C)C)cc1` [Example 158, Methyl 4-{2-[3-(4-cyano-3-cyclopropylphenyl)-5,5-dimethyl-2,4-dioxoimidazolidin-1-ylmethyl]-5-fluorophenylamino}benzoate]: the IC50 came to 9 nM. Consider `CC1(C)C(=O)N(c2ccc(C#N)c(C3CC3)c2)C(=O)N1Cc1ccc(F)cc1Nc1ccc(C(=O)O)cc1` [Example 159, 4-{2-[3-(4-cyano-3-cyclopropylphenyl)-5,5-dimethyl-2,4-dioxoimidazolidin-1-ylmethyl]-5-fluorophenylamino}benzoic acid], for which the IC50 turned out to be 2 nM. To `CC1(C)C(=O)N(c2ccc(C#N)c(C(F)(F)F)c2)C(=O)N1Cc1ccccc1Nc1ccc(C(=O)NCCS(=O)(=O)O)cc1` [Example 164, 2-(4-{2-[3-(4-Cyano-3-trifluoromethylphenyl)-5,5-dimethyl-2,4-dioxoimidazolidin-1-ylmethyl]phenylamino}benzoylamino)ethanesulfonic acid] belongs 137 nM. Consider `Cc1cc(N2C(=O)N(Cc3ccc(F)cc3Nc3ccc(C(=O)O)cc3)C(C)(C)C2=O)ccc1C#N` [Example 166, 4-{2-[3-(4-cyano-3-methylphenyl)-5,5-dimethyl-2,4-dioxoimidazolidin-1-ylmethyl]-5-fluorophenylamino}benzoic acid], for which the IC50 was 76 nM.

As for `CC(C)(C)c1cc(N2C(=O)N(Cc3ccc(F)cc3Nc3ccc(C(=O)O)cc3)C(C)(C)C2=O)ccc1C#N` [Example 169, 4-{2-[3-(3-tert-butyl-4-cyanophenyl)-5,5-dimethyl-2,4-dioxoimidazolidin-1-ylmethyl]-5-fluorophenylamino}benzoic acid], the IC50 turned out to be 9 nM. The same measure for `CC1(C)C(=O)N(c2ccc(C#N)c(C(F)(F)F)c2)C(=O)N1Cc1ccccc1Nc1ccc(NS(C)(=O)=O)cc1` [Example 175, N-(4-{2-[3-(4-Cyano-3-trifluoromethylphenyl)-5,5-dimethyl-2,4-dioxoimidazolidin-1-ylmethyl]phenylamino}phenyl)methanesulfonamide]: 9 nM; for `COC(=O)CNc1ccc(Nc2ccccc2CN2C(=O)N(c3ccc(C#N)c(C(F)(F)F)c3)C(=O)C2(C)C)cc1` [Example 177, Methyl (4-{2-[3-(4-cyano-3-trifluoromethylphenyl)-5,5-dimethyl-2,4-dioxoimidazolidin-1-ylmethyl]phenylamino}phenylamino)acetate]: 1 nM; for `COC(=O)CN(CC(=O)OC)c1ccc(Nc2ccccc2CN2C(=O)N(c3ccc(C#N)c(C(F)(F)F)c3)C(=O)C2(C)C)cc1` [Example 178]: 4 nM. The same measure for `COc1ncc(Nc2ccccc2CN2C(=O)N(c3ccc(C#N)c(C(F)(F)F)c3)C(=O)C2(C)C)cn1` [Example 180, 4-{3-[2-(2-methoxypyrimidin-5-ylamino)benzyl]-4,4-dimethyl-2,5-dioxoimidazolidin-1-yl}-2-trifluoromethylbenzonitrile]: 1 nM; for `Cc1cnccc1Nc1ccccc1CN1C(=O)N(c2ccc(C#N)c(C(F)(F)F)c2)C(=O)C1(C)C` [Example 181, 4-{4,4-dimethyl-3-[2-(3-methylpyridin-4-ylamino)benzyl]-2,5-dioxoimidazolidin-1-yl}-2-trifluoromethylbenzonitrile]: 8 nM. The same measure for `Cc1cc(N2C(=O)N(Cc3ccc(F)cc3Nc3ccc(C(N)=O)cc3)C(C)(C)C2=O)ccc1C#N` [Example 190, 4-{2-[3-(4-Cyano-3-methylphenyl)-5,5-dimethyl-2,4-dioxoimidazolidin-1-ylmethyl]-5-fluorophenylamino}benzamide]: 76 nM; for `COC(=O)C1=C[C@@H](OC(C)=O)[C@H](OC(C)=O)[C@@H](Oc2ccc(Nc3ccccc3CN3C(=O)N(c4ccc(C#N)c(C(F)(F)F)c4)C(=O)C3(C)C)cc2)O1` [Example 197, methyl (4R,5S,6S)-4,5-diacetoxy-6-(4-{2-[3-(4-cyano-3-trifluoromethylphenyl)-5,5-dimethyl-2,4-dioxoimidazolidin-1-ylmethyl]phenylamino}phenoxy)-5,6-dihydro-4H-pyran-2-carboxylate]: 19 nM.

As to `CC1(C)C(=O)N(c2ccc(C#N)c(C(F)(F)F)c2)C(=O)N1Cc1ccccc1Nc1ccc(O)nn1` [Example 198, 4-{3-[2-(6-Hydroxypyridazin-3-ylamino)benzyl]-4,4-dimethyl-2,5-dioxoimidazolidin-1-yl}-2-trifluoromethylbenzonitrile trifluoroacetic acid], the IC50 amounted to 23 nM. Consider `CC1(C)C(=O)N(c2ccc(C#N)c(C(F)(F)F)c2)C(=O)N1Cc1ccccc1Nc1ccc2c(c1)C(=O)OC2` [Example 200, 4-{4,4-dimethyl-2,5-dioxo-3-[2-(3-oxo-1,3-dihydroisobenzofuran-5-ylamino)benzyl]imidazolidin-1-yl}-2-trifluoromethylbenzonitrile], for which the IC50 was 8 nM. To `CC1(C)C(=O)N(c2ccc(C#N)c(C(F)(F)F)c2)C(=O)N1Cc1ccccc1Nc1ccc2c(c1)COC2=O` [Example 201, 4-{4,4-dimethyl-2,5-dioxo-3-[2-(1-oxo-1,3-dihydroisobenzofuran-5-ylamino)benzyl]imidazolidin-1-yl}-2-trifluoromethylbenzonitrile] belongs 5 nM; to `CC1(C)C(=O)N(c2ccc(F)c(C(F)(F)F)c2)C(=O)N1Cc1ccc(F)cc1Nc1ccc2c(c1)C(=O)CCC2` [Example 204, 1-[4-Fluoro-2-(8-oxo-5,6,7,8-tetrahydronaphthalen-2-ylamino)benzyl]-3-(4-fluoro-3-trifluoromethylphenyl)-5,5-dimethylimidazolidine-2,4-dione], 46 nM. To `CC1(C)C(=O)N(c2ccc(F)c(C(F)(F)F)c2)C(=O)N1Cc1ccc(F)cc1Nc1ccc2c(c1)C(=O)CC2` [Example 205, 1-[4-fluoro-2-(3-oxoindan-5-ylamino)benzyl]-3-(4-fluoro-3-trifluoromethylphenyl)-5,5-dimethylimidazolidine-2,4-dione] belongs 17 nM; to `CC1(C)C(=O)N(c2ccc(F)c(C(F)(F)F)c2)C(=O)N1Cc1ccc(F)cc1Nc1ccc2c(c1)CCC2=O` [Example 206, 1-[4-fluoro-2-(1-oxoindan-5-ylamino)benzyl]-3-(4-fluoro-3-trifluoromethylphenyl)-5,5-dimethylimidazolidine-2,4-dione], 24 nM.

Regarding `CC(C)(C)Oc1ncc(Nc2ccccc2CN2C(=O)N(c3ccc(C#N)c(C(F)(F)F)c3)C(=O)C2(C)C)c(OC(C)(C)C)n1` [Example 208, 4-{3-[2-(2,4-di-tert-butoxypyrimidin-5-ylamino)benzyl]-4,4-dimethyl-2,5-dioxoimidazolidin-1-yl}-2-trifluoromethylbenzonitrile], the IC50 stood at 13 nM. In the case of `CC1(C)C(=O)N(c2ccc(C#N)c(C(F)(F)F)c2)C(=O)N1Cc1ccccc1Nc1ccc2cc(C(=O)O)ccc2c1` [Example 209, 6-{2-[3-(4-cyano-3-trifluoromethylphenyl)-5,5-dimethyl-2,4-dioxoimidazolidin-1-ylmethyl]phenylamino}naphthalene-2-carboxylic acid], the IC50 turned out to be 62 nM. To `CC1(C)C(=O)N(c2ccc(F)c(C(F)(F)F)c2)C(=O)N1Cc1ccc(F)cc1Nc1ccc(S(C)(=O)=O)cc1` [Example 213, 1-[4-fluoro-2-(4-methanesulfonylphenylamino)benzyl]-3-(4-fluoro-3-trifluoromethylphenyl)-5,5-dimethylimidazolidine-2,4-dione] belongs 117 nM; to `CC(C)(C)c1cc(N2C(=O)N(Cc3ccc(F)cc3Nc3ccc(F)cc3F)C(C)(C)C2=O)ccc1C#N` [Example 221, 2-tert-butyl-4-{3-[2-(2,4-difluorophenylamino)-4-fluorobenzyl]-4,4-dimethyl-2,5-dioxoimidazolidin-1-yl}benzonitrile], 10 nM. The same measure for `CC1(C)C(=O)N(c2ccc(C#N)c(-c3ccc(Cl)cc3)c2)C(=O)N1Cc1ccc(F)cc1Nc1ccc(C(=O)O)cc1` [Example 228, 4-{2-[3-(4′-chloro-6-cyanobiphenyl-3-yl)-5,5-dimethyl-2,4-dioxoimidazolidin-1-ylmethyl]-5-fluorophenylamino}benzoic acid]: 61 nM.

For the compound `COC(=O)C(Cc1ccc(Nc2ccccc2CN2C(=O)N(c3ccc(C#N)c(C(F)(F)F)c3)C(=O)C2(C)C)cc1)C(=O)OC` [Example 232, Dimethyl 2-(4-{2-[3-(4-cyano-3-trifluoromethylphenyl)-5,5-dimethyl-2,4-dioxoimidazolidin-1-ylmethyl]phenylamino}benzyl)malonate], the IC50 was found to be 112 nM.
